Results taken from ChEMBL document CHEMBL5465560, “Selectivity Literature for EUbOPEN Chemogenomic Library” (2024).
Blank lines part the entries; values can stand above or below the molecule they belong to.

Legend:
[1] = biological target: Tyrosine-protein kinase Fer (Homo sapiens) (UniProt P16591); assay: Selectivity interaction (ActivX KiNativ screen (kinase selectivity in THP-1 cell lysates)) EUB0000639a FER; assay type: subcellular; settings: lysate, at 0.01 µM
[2] = biological target: Serine/threonine-protein kinase MARK2 (Homo sapiens) (UniProt Q7KZI7); assay: Selectivity interaction (ActivX KiNativ screen (kinase selectivity in THP-1 cell lysates)) EUB0000639a MARK2; assay type: subcellular; settings: lysate, at 5 µM
Serine/threonine-protein kinase MARK2 (Homo sapiens), sequence (Q7KZI7 whole entry): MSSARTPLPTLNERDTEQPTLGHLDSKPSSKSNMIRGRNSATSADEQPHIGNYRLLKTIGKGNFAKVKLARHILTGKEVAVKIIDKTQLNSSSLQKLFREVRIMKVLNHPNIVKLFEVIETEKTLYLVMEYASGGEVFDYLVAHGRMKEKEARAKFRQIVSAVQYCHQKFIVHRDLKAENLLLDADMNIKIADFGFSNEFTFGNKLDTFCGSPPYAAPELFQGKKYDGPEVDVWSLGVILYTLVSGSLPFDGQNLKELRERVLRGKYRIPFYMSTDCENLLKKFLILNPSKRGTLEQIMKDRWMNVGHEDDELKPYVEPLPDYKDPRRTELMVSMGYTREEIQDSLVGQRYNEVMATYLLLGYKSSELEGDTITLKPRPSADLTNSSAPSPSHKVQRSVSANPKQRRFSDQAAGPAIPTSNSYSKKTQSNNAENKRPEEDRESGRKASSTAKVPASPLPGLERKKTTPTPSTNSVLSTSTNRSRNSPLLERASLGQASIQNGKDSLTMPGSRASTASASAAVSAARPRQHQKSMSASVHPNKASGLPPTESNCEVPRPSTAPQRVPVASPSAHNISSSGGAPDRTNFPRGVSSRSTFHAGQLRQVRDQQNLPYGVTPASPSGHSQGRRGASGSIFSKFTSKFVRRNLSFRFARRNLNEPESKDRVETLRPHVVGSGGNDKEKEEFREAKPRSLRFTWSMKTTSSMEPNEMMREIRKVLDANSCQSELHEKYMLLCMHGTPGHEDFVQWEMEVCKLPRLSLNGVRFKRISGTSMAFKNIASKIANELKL

[3] = biological target: T1, N-lysine methyltransferase KMT5A (Homo sapiens) (UniProt Q9NQR1); settings: at 1 µM
T1 sequence (whole entry): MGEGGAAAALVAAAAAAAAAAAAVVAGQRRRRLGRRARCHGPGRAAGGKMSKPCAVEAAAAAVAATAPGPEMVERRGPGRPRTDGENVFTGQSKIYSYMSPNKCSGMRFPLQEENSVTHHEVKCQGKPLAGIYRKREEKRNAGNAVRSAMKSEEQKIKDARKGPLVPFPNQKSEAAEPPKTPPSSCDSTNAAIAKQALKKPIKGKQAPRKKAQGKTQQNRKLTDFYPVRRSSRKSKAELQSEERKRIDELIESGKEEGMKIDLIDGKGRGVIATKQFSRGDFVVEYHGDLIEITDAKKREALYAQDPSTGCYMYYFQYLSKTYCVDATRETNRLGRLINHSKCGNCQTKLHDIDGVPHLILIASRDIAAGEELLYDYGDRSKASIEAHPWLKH

[4] = biological target: Ribosomal protein S6 kinase alpha-1 (Homo sapiens, UniProt Q15418); assay: Selectivity interaction (Kinase panel (literature)) EUB0001199aCl RPS6KA1; settings: at 1 µM
Ribosomal protein S6 kinase alpha-1, sequence (Q15418 whole entry): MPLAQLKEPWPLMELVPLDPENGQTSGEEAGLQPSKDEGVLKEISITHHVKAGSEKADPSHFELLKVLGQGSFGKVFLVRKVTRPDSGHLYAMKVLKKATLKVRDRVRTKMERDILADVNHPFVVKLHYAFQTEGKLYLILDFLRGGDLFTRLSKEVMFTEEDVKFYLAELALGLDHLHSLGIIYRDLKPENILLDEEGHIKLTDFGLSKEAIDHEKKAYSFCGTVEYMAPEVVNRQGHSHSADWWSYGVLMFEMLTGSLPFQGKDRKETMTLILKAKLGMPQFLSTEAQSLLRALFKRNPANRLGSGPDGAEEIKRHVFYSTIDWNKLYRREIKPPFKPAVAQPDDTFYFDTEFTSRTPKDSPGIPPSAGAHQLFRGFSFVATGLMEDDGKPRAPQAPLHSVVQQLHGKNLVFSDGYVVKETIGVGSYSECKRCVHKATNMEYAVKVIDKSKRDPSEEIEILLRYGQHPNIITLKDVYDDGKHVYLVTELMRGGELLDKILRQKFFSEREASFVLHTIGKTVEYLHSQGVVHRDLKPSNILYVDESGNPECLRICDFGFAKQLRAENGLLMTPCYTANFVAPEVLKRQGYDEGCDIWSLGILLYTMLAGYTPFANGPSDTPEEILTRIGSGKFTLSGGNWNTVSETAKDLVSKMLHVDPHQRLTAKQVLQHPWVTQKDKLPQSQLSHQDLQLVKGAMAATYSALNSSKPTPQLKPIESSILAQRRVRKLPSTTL

[5] = biological target: T2, Ephrin type-B receptor 3 (Homo sapiens) (UniProt P54753); assay: Selectivity interaction (KinomeScan (DiscoverX)) EUB0000595a EPHB3; settings: at 10 µM
T2 sequence (whole entry): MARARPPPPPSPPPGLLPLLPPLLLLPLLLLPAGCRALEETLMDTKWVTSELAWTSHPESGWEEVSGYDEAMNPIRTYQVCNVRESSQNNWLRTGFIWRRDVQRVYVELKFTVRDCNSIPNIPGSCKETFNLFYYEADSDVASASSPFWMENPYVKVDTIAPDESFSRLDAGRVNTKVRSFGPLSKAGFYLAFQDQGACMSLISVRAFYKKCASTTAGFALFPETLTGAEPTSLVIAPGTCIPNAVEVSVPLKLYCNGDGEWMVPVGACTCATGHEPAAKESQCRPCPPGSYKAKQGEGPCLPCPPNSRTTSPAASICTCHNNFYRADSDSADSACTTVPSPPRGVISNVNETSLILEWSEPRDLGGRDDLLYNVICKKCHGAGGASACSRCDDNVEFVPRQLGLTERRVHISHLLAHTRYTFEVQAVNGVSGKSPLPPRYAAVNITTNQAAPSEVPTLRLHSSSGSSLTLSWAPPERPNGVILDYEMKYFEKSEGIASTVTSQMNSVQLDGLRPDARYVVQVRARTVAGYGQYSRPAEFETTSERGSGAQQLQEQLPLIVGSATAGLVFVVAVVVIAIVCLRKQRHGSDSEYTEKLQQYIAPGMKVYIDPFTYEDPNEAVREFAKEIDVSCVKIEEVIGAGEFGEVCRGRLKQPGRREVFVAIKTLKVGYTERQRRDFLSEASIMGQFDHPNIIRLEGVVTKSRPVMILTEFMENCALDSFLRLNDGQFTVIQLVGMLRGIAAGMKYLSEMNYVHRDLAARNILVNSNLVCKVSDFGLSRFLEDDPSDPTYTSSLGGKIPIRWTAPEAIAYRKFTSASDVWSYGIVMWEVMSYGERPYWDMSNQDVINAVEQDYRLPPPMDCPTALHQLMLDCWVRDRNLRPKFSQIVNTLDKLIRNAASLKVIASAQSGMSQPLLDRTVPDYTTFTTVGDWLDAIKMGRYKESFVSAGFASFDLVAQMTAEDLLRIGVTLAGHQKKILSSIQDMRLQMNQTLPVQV

[6] = biological target: T3, Serine/threonine-protein kinase RIO1 (Homo sapiens) (UniProt Q9BRS2); assay: Selectivity interaction (KinomeScan (DiscoverX)) EUB0000092b RIOK1; settings: at 10 µM
T3 sequence (whole entry): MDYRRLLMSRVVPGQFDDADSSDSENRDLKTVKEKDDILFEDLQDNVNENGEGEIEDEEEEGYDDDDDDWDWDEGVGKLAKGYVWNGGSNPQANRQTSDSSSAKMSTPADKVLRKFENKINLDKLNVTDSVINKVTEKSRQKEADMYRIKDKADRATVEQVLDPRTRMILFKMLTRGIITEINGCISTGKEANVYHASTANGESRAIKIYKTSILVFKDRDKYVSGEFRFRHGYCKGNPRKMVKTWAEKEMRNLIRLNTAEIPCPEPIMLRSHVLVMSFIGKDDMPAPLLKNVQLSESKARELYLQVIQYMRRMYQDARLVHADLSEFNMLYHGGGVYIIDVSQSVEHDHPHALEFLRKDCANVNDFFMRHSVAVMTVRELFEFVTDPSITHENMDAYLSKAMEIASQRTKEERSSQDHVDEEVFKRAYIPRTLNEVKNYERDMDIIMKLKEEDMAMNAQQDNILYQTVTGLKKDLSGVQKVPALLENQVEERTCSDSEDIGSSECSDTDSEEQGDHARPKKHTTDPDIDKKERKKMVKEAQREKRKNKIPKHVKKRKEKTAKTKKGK

[7] = biological target: RAC-gamma serine/threonine-protein kinase (Homo sapiens, UniProt Q9Y243); assay: Selectivity interaction (Upstate Kinase Profiler service (Millipore)) EUB0000056c AKT3; settings: at 1 µM
RAC-gamma serine/threonine-protein kinase, sequence (Q9Y243 whole entry): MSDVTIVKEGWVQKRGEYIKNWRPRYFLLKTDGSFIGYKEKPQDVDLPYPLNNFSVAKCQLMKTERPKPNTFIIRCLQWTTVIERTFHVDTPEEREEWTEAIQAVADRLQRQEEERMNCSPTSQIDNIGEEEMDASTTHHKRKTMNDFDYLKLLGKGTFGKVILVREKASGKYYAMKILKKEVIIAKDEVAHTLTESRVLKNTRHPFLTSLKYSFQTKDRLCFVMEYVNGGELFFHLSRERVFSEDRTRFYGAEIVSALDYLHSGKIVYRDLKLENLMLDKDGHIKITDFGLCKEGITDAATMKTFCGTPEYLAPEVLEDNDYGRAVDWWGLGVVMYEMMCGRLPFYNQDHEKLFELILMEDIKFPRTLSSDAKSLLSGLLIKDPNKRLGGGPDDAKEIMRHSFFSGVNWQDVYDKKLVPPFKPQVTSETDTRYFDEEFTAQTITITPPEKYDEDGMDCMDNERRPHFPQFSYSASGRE

Tyrosine-protein kinase Fer (Homo sapiens), sequence (P16591 whole entry, looked up): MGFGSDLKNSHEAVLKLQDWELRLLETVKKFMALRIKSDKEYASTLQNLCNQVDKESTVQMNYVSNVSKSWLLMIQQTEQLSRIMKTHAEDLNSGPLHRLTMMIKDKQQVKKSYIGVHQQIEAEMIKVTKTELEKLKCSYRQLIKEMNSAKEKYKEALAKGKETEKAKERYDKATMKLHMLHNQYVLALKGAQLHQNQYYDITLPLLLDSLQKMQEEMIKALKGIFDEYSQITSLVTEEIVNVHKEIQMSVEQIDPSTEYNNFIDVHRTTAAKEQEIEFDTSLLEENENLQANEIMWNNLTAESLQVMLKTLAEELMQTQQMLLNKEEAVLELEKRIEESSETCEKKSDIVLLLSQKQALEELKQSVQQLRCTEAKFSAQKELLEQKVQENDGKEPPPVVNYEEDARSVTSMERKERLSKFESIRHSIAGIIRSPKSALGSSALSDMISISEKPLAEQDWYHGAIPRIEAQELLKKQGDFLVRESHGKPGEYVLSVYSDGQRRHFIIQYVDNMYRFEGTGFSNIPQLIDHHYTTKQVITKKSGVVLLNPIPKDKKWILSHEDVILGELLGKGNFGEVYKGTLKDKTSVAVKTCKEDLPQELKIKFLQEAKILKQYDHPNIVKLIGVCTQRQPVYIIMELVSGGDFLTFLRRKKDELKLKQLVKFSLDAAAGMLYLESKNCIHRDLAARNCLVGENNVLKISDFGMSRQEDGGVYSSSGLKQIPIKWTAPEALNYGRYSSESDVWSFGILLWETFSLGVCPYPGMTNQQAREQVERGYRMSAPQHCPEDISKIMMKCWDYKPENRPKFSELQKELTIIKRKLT

Compound: CC[C@@H]1[C@H](F)C(=O)N[C@@H]1COc1nccc2cc(C(N)=O)c(OC)cc12 [ZIMLOVISERTIB]
% of inhibition [1]: -9%
% of inhibition [2]: 45.6%

Compound: CN1Cc2nccc(-c3cn(C)nc3-c3ccc(F)cc3)c2C1=O
% of inhibition [4]: 18%

Compound: COCC(=O)NC/C=C/c1ccc2ncnc(Nc3ccc(Oc4ccc(C)nc4)c(C)c3)c2c1 [CP-724714]
% of control [5]: 86%

Compound: CCC(=O)N1CCN(c2ccc(-n3c(=O)ccc4cnc5ccc(-c6cnc7ccccc7c6)cc5c43)cc2C(F)(F)F)CC1
% of control [6]: 81%

Results, then the molecule that gave them:

% activity [3]: > 90%
Compound: CNCCN1CCC(c2cc(CN(C)C(=O)c3cccc(Oc4ccccc4)c3)ccn2)CC1

% of inhibition [7]: 0%
Compound: Cc1ccc(-c2ccc3c(ccc4sc5c(c43)NC[C@@H](C)NC5=O)n2)cn1
